Assay results taken from patent US20230203043A1, “NOVEL IMIDAZOPYRAZINE DERIVATIVES” (Hoffmann-La Roche Inc., priority 2020, published 2023).
Structures can show the parent of a compound that is named as a salt.

Tested on: Acinetobacter baumannii ATCC17961
Experiment: Antimicrobial susceptibility testing: 90% growth inhibitory concentration (IC90) determination in Iso-Sensitest broth, OD600 growth
Type: cell-based
Settings: Acinetobacter baumannii, ATCC17961, 16 h, read-out: A. baumannii ATCC 17961 IC90 (uM), strain ATCC 17961, OD600 growth over 16 h
Method in brief: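 Twofold compound dilutions (e.g. 50 to 0.097 μM final) in Iso-Sensitest broth with ~5×10^(5) CFU/ml, 35±2 °C. OD600 read every 20 min over 16 h; IC90 from growth inhibition during logarithmic phase.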

Row | Compound | IC90 [µM]
1 | CCc1cc(Nc2nccn3c(-c4cn(CC#N)nc4C(F)(F)F)cnc23)ccc1C(=O)NCC(=O)N[C@H]1CCNC1 [Example 758, 4-[[3-[1-(cyanomethyl)-3-(trifluoromethyl)pyrazol-4-yl]imidazo[1,2-a]pyrazin-8-yl]amino]-2-ethyl-N-[2-oxo-2-[[(3S)-pyrrolidin-3-yl]amino]ethyl]benzamide formate] | 0.693
2 | Cc1cc(Nc2nccn3c(-c4cn(CC#N)nc4C(F)(F)F)cnc23)ccc1C(=O)NCC(=O)NCCN [Example 760, N-[2-(2-aminoethylamino)-2-oxo-ethyl]-4-[[3-[1-(cyanomethyl)-3-(trifluoromethyl)pyrazol-4-yl]imidazo[1,2-a]pyrazin-8-yl]amino]-2-methyl-benzamide formate] | 0.718
3 | Cc1cc(Nc2nccn3c(-c4cn(CC#N)nc4C(F)(F)F)cnc23)ccc1C(=O)N[C@H](C)C(=O)N1CC[C@@H](N)C1 [Example 761, N-[(1R)-2-[(3R)-3-aminopyrrolidin-1-yl]-1-methyl-2-oxo-ethyl]-4-[[3-[1-(cyanomethyl)-3-(trifluoromethyl)pyrazol-4-yl]imidazo[1,2-a]pyrazin-8-yl]amino]-2-methyl-b enzamide formate] | 0.721
4 | CCc1cc(Nc2nccn3c(-c4cn(CCF)nc4C(F)F)cnc23)ccc1C(=O)N1CCN(C(=O)C2CCNCC2)CC1 [Example 770, (4-(4-((3-(3-(difluoromethyl)-1-(2-fluoroethyl)-1H-pyrazol-4-yl)imidazo[1,2-a]pyrazin-8-yl)amino)-2-ethylbenzoyl)piperazin-1-yl)(piperidin-4-yl)methanone formate] | 0.929

Same assay, conditions: Acinetobacter baumannii, ATCC17961, 16 h, strain ATCC 17961, OD600 growth over 16 h, read-out: A. baumannii ATCC 17961 IC90

Row | Compound | IC90 [µM]
5 | CCc1cc(Nc2nccn3c(-c4c[nH]nc4C(F)(F)F)cnc23)ccc1C(=O)NCCCNC(=O)[C@H](C)NC(=O)C(F)(F)F [Example 759, (S)-2-ethyl-N-(3-(2-(2,2,2-trifluoroacetamido)propanamido)propyl)-4-((3-(3-(trifluoromethyl)-1H-pyrazol-4-yl)imidazo[1,2-a]pyrazin-8-yl)amino) benzamide] | 0.693
6 | CCc1cc(Nc2nccn3c(-c4c[nH]nc4C(F)(F)F)cnc23)ccc1C(=O)N[C@H](C)CNC(=O)[C@@H]1CCCN1 [Example 762, (S)-N-((R)-2-(2-ethyl-4-((3-(3-(trifluoromethyl)-1H-pyrazol-4-yl)imidazo[1,2-a]pyrazin-8-yl)amino)benzamido)propyl) pyrrolidine-2-carboxamide] | 0.722
7 | CCc1cc(Nc2nccn3c(-c4cn(CC(F)F)nc4C(F)F)cnc23)ccc1C(=O)N1CCN(C(=O)C2(O)CCNCC2)CC1 [Example 764, (4-(4-((3-(1-(2,2-difluoroethyl)-3-(difluoromethyl)-1H-pyrazol-4-yl)imidazo[1,2-a]pyrazin-8-yl)amino)-2-ethylbenzoyl)piperazin-1-yl)(4-hydroxypiperidin-4-yl)methanone] | 0.809
8 | CCc1cc(Nc2nccn3c(-c4cn(CC#N)nc4C(F)(F)F)cnc23)ccc1C(=O)NCC(=O)NCCN [Example 765, N-[2-(2-aminoethylamino)-2-oxo-ethyl]-4-[[3-[1-(cyanomethyl)-3-(trifluoromethyl)pyrazol-4-yl]imidazo[1,2-a]pyrazin-8-yl]amino]-2-ethyl-benzamide] | 0.895
9 | CCc1cc(Nc2nccn3c(-c4cn(CC(F)F)nc4C(F)F)cnc23)ccc1C(=O)N1CCN(C(=O)[C@H](N)C(C)C)CC1 [Example 768, (R)-2-amino-1-(4-(4-((3-(1-(2,2-difluoroethyl)-3-(difluoromethyl)-1H-pyrazol-4-yl)imidazo[1,2-a]pyrazin-8-yl)amino)-2-ethylbenzoyl)piperazin-1-yl)-3-methylbutan-1-one] | 0.916
10 | Cc1cc(Nc2nccn3c(-c4cn(CC#N)nc4C(F)(F)F)cnc23)cc(F)c1C(=O)N[C@H](C)CNC(=O)[C@@H]1C[C@@H](O)CN1 [Example 769, (2S,4R)-N-((R)-2-(4-(3-(1-(cyanomethyl)-3-(trifluoromethyl)-1H-pyrazol-4-yl)imidazo[1,2-a]pyrazin-8-yl)amino)-2-fluoro-6-methylbenzamido)propyl)-4-hydroxypyrrolidine-2-carboxamide formate] | 0.928
11 | CCc1cc(Nc2nccn3c(-c4c[nH]nc4C(F)(F)F)cnc23)ccc1C(=O)NCCOCCN1CCOCC1 [Example 772, 2-ethyl-N-(2-(2-morpholinoethoxy)ethyl)-4-((3-(3-(trifluoromethyl)-1H-pyrazol-4-yl)imidazo[1,2-a]pyrazin-8-yl)amino)benzamide] | 0.968
12 | C=CCn1cc(-c2cnc3c(Nc4ccc(C(=O)N5CCN(C(=O)[C@@H]6C[C@@H](O)CN6)CC5)c(CC)c4)nccn23)c(C(F)F)n1 [Example 774, (4-(4-((3-(1-allyl-3-(difluoromethyl)-1H-pyrazol-4-yl)imidazo[1,2-a]pyrazin-8-yl)amino)-2-ethylbenzoyl)piperazin-1-yl)((2S,4R)-4-hydroxypyrrolidin-2-yl)methanone] | 0.986

Further lines, results first:

Row | IC90 [µM] | Compound
13 | 0.75 | O=C(c1ccc(Nc2nccn3c(-c4cn(C(F)F)nc4C(F)(F)F)cnc23)cc1Cl)N1CC2(C1)CN(C(=O)[C@@H]1CCCN1)C2 [Example 763, (S)-(2-chloro-4-((3-(1-(difluoromethyl)-3-(trifluoromethyl)-1H-pyrazol-4-yl)imidazo[1,2-a]pyrazin-8-yl)amino)phenyl)(6-prolyl-2,6-diazaspiro[3.3]heptan-2-yl)methanone]
14 | 0.903 | CCc1cc(Nc2nccn3c(-c4cn(CC(F)F)nc4C(F)F)cnc23)ccc1C(=O)N1CCN(C(=O)CN)CC1 [Example 766, 2-amino-1-(4-(4-((3-(1-(2,2-difluoroethyl)-3-(difluoromethyl)-1H-pyrazol-4-yl)imidazo[1,2-a]pyrazin-8-yl)amino)-2-ethylbenzoyl)piperazin-1-yl)ethan-1-one]
15 | 0.904 | CCc1cc(Nc2nccn3c(-c4cn(COC)nc4C(F)F)cnc23)ccc1C(=O)N1CCN(C(=O)[C@H](C)N)CC1 [Example 767, (S)-2-amino-1-(4-(4-((3-(3-(difluoromethyl)-1-(methoxymethyl)-1H-pyrazol-4-yl)imidazo[1,2-a]pyrazin-8-yl)amino)-2-ethylbenzoyl)piperazin-1-yl)propan-1-one]
16 | 0.953 | CCc1cc(Nc2nccn3c(-c4cn(COC)nc4C(F)F)cnc23)ccc1C(=O)N1CCN(C(=O)CN)CC1 [Example 771, 2-amino-1-(4-(4-((3-(3-(difluoromethyl)-1-(methoxymethyl)-1H-pyrazol-4-yl)imidazo[1,2-a]pyrazin-8-yl)amino)-2-ethylbenzoyl)piperazin-1-yl)ethan-1-one]
17 | 0.978 | C#CCn1cc(-c2cnc3c(Nc4ccc(C(=O)N5CCN(C(=O)[C@H](N)C(C)C)CC5)c(CC)c4)nccn23)c(C(F)F)n1 [Example 773, (R)-2-amino-1-(4-(4-((3-(3-(difluoromethyl)-1-(prop-2-yn-1-yl)-1H-pyrazol-4-yl)imidazo[1,2-a]pyrazin-8-yl)amino)-2-ethylbenzoyl)piperazin-1-yl)-3-methylbutan-1-one]
18 | 0.988 | CCc1cc(Nc2nccn3c(-c4cn(CC(F)F)nc4C(F)F)cnc23)ccc1C(=O)N1CCN(C(=O)[C@H](C)N)CC1 [Example 775, (S)-2-amino-1-(4-(4-((3-(1-(2,2-difluoroethyl)-3-(difluoromethyl)-1H-pyrazol-4-yl)imidazo[1,2-a]pyrazin-8-yl)amino)-2-ethylbenzoyl)piperazin-1-yl)propan-1-one]
